Assays:
HL-60 = test: Antiproliferative activity against human HL-60 cells assessed as reduction in cell viability incubated for 72 hrs by cell titer glo assay; type: functional, cell-based; conditions: HL-60, 72 h
THLE-2 = test: Cytotoxicity against human THLE-2 cells assessed as cell viability incubated for 72 hrs by cell titer glo assay; type: cell-based; conditions: THLE-2, 72 h
OCI-AML-3 = test: Antiproliferative activity against human OCI-AML3 cells assessed as reduction in cell viability incubated for 72 hrs by cell titer glo assay; type: functional, cell-based; conditions: OCI-AML-3, 72 h
MOLM-13 = test: Antiproliferative activity against human MOLM-13 cells assessed as reduction in cell viability incubated for 72 hrs by cell titer glo assay; type: functional, cell-based; conditions: MOLM-13, 72 h
KG-1a = test: Antiproliferative activity against human KG-1a cells assessed as reduction in cell viability incubated for 72 hrs by cell titer glo assay; type: functional, cell-based
MV4-11 = test: Antiproliferative activity against human MV4-11 cells assessed as reduction in cell viability incubated for 72 hrs by cell titer glo assay; type: functional, cell-based; conditions: MV4-11, 72 h
KG-1 = test: Antiproliferative activity against human KG-1 cells assessed as reduction in cell viability incubated for 72 hrs by cell titer glo assay; type: functional, cell-based; conditions: KG-1, 72 h
Kasumi 1 = test: Antiproliferative activity against human Kasumi 1 cells assessed as reduction in cell viability incubated for 72 hrs by cell titer glo assay; type: functional, cell-based; conditions: Kasumi 1, 72 h
OCI-AML2 = test: Antiproliferative activity against human OCI-AML2 cells assessed as reduction in cell viability incubated for 72 hrs by cell titer glo assay; type: functional, cell-based; conditions: OCI-AML2, 72 h
U-937 = test: Antiproliferative activity against human U937 cells assessed as reduction in cell viability incubated for 72 hrs by cell titer glo assay; type: functional, cell-based; conditions: U-937, 72 h
NB-4 = test: Antiproliferative activity against human NB4 cells assessed as reduction in cell viability incubated for 72 hrs by cell titer glo assay; type: functional, cell-based; conditions: NB-4, 72 h

- IC50 (HL-60): 3 nM
- IC50 (OCI-AML-3): 73 nM
- IC50 (MOLM-13): 8 nM
- IC50 (MV4-11): 5 nM
- IC50 (OCI-AML2): 21 nM
- IC50 (U-937): 11 nM
SMILES: Cc1ccc(NC(=O)NCc2ccc3c(c2)CN(C2CCC(=O)NC2=O)C3=O)cc1Cl (stereo unspecified)
- IC50 (THLE-2): 11 nM
- IC50 (KG-1a): 8 nM
- IC50 (KG-1): 7 nM
- IC50 (Kasumi 1): 10 nM
- IC50 (NB-4): 2 nM

— ChEMBL document CHEMBL4706692, “CC-90009: A Cereblon E3 Ligase Modulating Drug That Promotes Selective Degradation of GSPT1 for the Treatment of Acute Myeloid Leukemia” (J Med Chem, 2021)
